Residues, ends and D or L forms follow the SMILES beside them.

For series [1], the system named is normal dermal fibroblasts. Description: TGF-ß-induced fibrotic gene expression in skin fibroblasts (qPCR, Western blot). In kind it is cell-based, human. From the text:
(§1) Primary cultures of healthy adult and SSc skin fibroblasts, and neonatal fibroblasts, were established by explantation. The clinical features of the subjects are shown in Supplementary Table 5. Protocols for skin biopsies were approved by the Institutional Review Board at Northwestern University. Embryonic fibroblasts from AMP protein kinase (AMPK)^−/− mice and wild-type mice were a gift from Yu-Ying He (University of Chicago). When cultures reached confluence, serum-free media supplemented with 0.1% bovine serum albumin (BSA) were added prior to TGF-β2 (Peprotech, Rocky Hill, NJ) or/and ADP355 (10 μM)[37], and incubation continued for a further 24 h. Cytotoxicity was evaluated using LDH assays (Biovision).
(§2) RNA was isolated from skin samples using RNAeasy Fibrous Tissue Mini kit (Qiagen, Valencia, CA), or from fibroblast cultures, using the RNeasy Plus mini kit (Qiagen), and processed for qPCR as described. mRNA levels were normalized to the levels of 18 S RNA or GAPDH, and the relative amounts were calculated using the 2^−ΔΔCt method.
At the end of the experiments, fibroblasts were harvested and whole cell lysates (100 μg) were subjected to Western-blot analysis[25] using antibodies for Type I collagen (Southern Biotech), α-SMA (Sigma), phospho-Smad2/3 (Cell-Signaling), phospho-FAK (pY397, Cell Signaling), total-FAK (Cell Signaling) or GAPDH (Zymed, San Francisco, CA). […]

Series [2] has as its system skin fibroblasts. Description: Cytotoxicity, LDH assay. Format: cell-based, human. The settings on record: concentrations of ADP355 used for these experiments (10 μM).
Excerpt: as §1

Series [3] deals with phospho-Smad2/3. In words: Smad2/3 phosphorylation elicited by TGF-ß (Western). Format: cell-based, human. As to conditions: fibroblasts treated with ADP355. As to the method: (§3) At the end of the experiments, fibroblasts were harvested and whole cell lysates (100 μg) were subjected to Western-blot analysis[25] using antibodies for Type I collagen (Southern Biotech), α-SMA (Sigma), phospho-Smad2/3 (Cell-Signaling), phospho-FAK (pY397, Cell Signaling), total-FAK (Cell Signaling) or GAPDH (Zymed, San Francisco, CA). Electrophoretic bands were detected using enhanced chemiluminescence reagents (Pierce Biotechnology, Rockford, IL), and band intensities were quantified with Image J software. Results were normalized with GAPDH levels in each sample.

Series [4] concerns 3D human skin equivalents populated with normal skin fibroblasts. In words: 3D human skin equivalents, fibrotic responses (qPCR). Format: cell-based. As to conditions: peptide 10 uM with TGF-β2 for 6 days. As to the method: Normal human skin fibroblasts (3 × 10^5cells) were mixed with rat tail Type I collagen (4 mg/ml, BD Biosciences, San Jose, CA) and seeded in 12-well plates, [60]. Epidermal keratinocytes (6 × 10^6 cells) were seeded on the collagen plugs. Forty-eight hours later, the 3D organotypic cultures were placed on metal grids (BD Biosciences) and maintained for 5 days at an air-medium interface. Peptides (10 uM) were then added in media with or without TGF-β, and incubations continued for a further six days. Experiments were harvested, and RNA was isolated for analysis.
as §2
For orientation: In qPCR the cycle at which signal appears reflects the starting amount.

The test system of series [5] is SSc skin fibroblasts. Description: Constitutive fibrotic gene expression in SSc fibroblasts. Format: cell-based, human. The settings on record: unstimulated SSc fibroblasts (n = 5), ADP355 24 h, αSMA and type I collagen immunofluorescence. As to the method: (§4) Normal skin fibroblasts (10,000 cells/well) seeded in 8-well Lab-Tek II chamber glass slides (Nalge Nunc International, Naperville, IL) were incubated in media with indicated reagents. At the end of the experiments, cells were fixed, permeabilized, and incubated with primary antibodies to α-SMA (1:500, Sigma), phospho-FAK (pY397; 1:50, Abcam), vinculin (1:200, Abcam), Alexa Fluor 488 phalloidin (1:200, Invitrogen) or Type I collagen (1:100, Southern Biotech), followed by appropriate secondary antibodies conjugated to Alexa Fluor (Invitrogen), and evaluated under a Nikon C1Si confocal microscope.
as §1

For series [6], the system named is phospho-AMP kinase (Thr172). In words: AMPK phosphorylation in normal fibroblasts (immunofluorescence). In kind it is cell-based, human. As to conditions: ADP355 60 min, confocal immunofluorescence.
Series [7] relates to AMPK-null MEFs. Description: Anti-fibrotic activity in AMPK-null MEFs (qPCR). Format: cell-based. As to conditions: mouse embryonic fibroblasts, ADP355 24 h.
Excerpt: as §1, §2

The subject of series [8] is p-FAK Y397. Description: FAK phosphorylation and focal adhesion complex assembly. In kind it is cell-based, human. The settings on record: normal skin fibroblasts, pretreatment with ADP355. As to the method:
as §4, §3

A short description of series [9]: Ex vivo stability in serum. As to conditions: 30 min incubation with serum, intact peptide, data not shown. In kind it is in vitro ADME.
Series [10] is described as follows: Tolerability of chronic treatment in mice. Format: in vivo, mouse. As to conditions: 1 mg/kg/d i.p. for up to 28 days. The source says:
(§5) Bleomycin (BLM) or phosphate buffered saline (PBS) was given by daily subcutaneous (s.c.) injection for 14 consecutive days[55]. In some experiments, mice were given a single s.c. injection of adenovirus expressing constitutively-active TGF-ß1 (TGFß1^223/225 3x10^9 PFU/ml) or beta-galactosidase (5x10^9 PFU/ml)[56]. Peritoneal fibrosis was induced by i.p. injections of 0.1% chlorhexidine gluconate (CG; Wako Pure Chemical Industries, Osaka, Japan) dissolved in 15% ethanol/PBS given on alternate days for 21 days[35]. Synthetic peptides targeting AdipoR (ADP355 or ADP27)[37] or vehicle (PBS) at the indicated concentrations were administered by daily i.p. injection for 14 or 24 days. Each experimental group consisted of 4–8 mice, and experiments were repeated at least two times with consistent results. At the end of the experiments, mice were sacrificed and blood and tissue were collected for analysis.

For series [11], the system named is C57BL6/J mice. Description: Bleomycin-induced skin fibrosis in mice. Format: in vivo, mouse.
Excerpt: as §5
Harvested skin or parietal peritoneal membrane samples were fixed in PFA, embedded in paraffin and 4 μm thick sections were stained with hematoxylin and eosin (H&E). Collagen deposition and organization were assessed using Masson’s Trichrome staining. Thickness of the dermis, dWAT or peritoneal membrane were determined at five randomly selected locations/slide using ImageJ software.
Collagen content of lesional skin was determined by measuring the hydroxyproline content in 6-mm punch biopsy samples (BioVision, Milpitas, CA) (16). Serum levels of adiponectin were determined by ELISA which measures all adiponectin isoforms (Millipore; #EZMADP-60K)[9].
as §2

Where [12] appears, read: daily i.p. ADP355 initiated concurrently with BLM.

On to `CCC[C@H](NC(=O)[C@@H]1CCCN1C(=O)[C@@H](NC(=O)[C@H](N)CC(N)=O)[C@@H](C)CC)C(=O)N[C@@H](CC(C)C)C(=O)N[C@@H](Cc1ccc(O)cc1)C(=O)N[C@H](CO)C(=O)N[C@@H](Cc1ccccc1)C(=O)N[C@@H](C)C(=O)N[C@H](CO)C(N)=O` [ADP355, H-DAsn-Ile-Pro-Nva-Leu-Tyr-DSer-Phe-Ala-DSer-NH2] (HELM PEPTIDE1{[dN].I.P.[Nva].L.Y.[dS].F.A.[dS].[am]}$$$$V2.0), for which the “inhibitory effects on fibrotic gene expression” value in series [1] (adult skin fibroblasts, data not shown) is on record as “Comparable inhibitory effects”. The “COL1A1, COL1A2, ASMA, and fibronectin (FN) gene expression induced by TGF-ß” value in [1] (neonatal skin fibroblasts, ADP355 10 μM preincubation then TGF-β2 24 h, qPCR and Western blot) is “potent abrogation”. Moreover, the cell viability entry in series [2] was “No effects on cell viability”. In [3], the “Smad2/3 phosphorylation elicited by TGF-ß” value is recorded as “partially reduced”. Moreover, in series [4], the “fibrotic responses in 3D human skin equivalents” value was “attenuated fibrotic responses”. In series [5], the “constitutive fibrotic gene expression” value is “mitigated constitutive fibrotic gene expression”. Besides, the AMPK phosphorylation result in [6] was “induced AMPK phosphorylation”. Moreover, the “anti-fibrotic activity in AMPK-null MEFs” value in [7] is recorded as “failed to exert anti-fibrotic activity”. Also, the “FAK activation and focal adhesion complex assembly augmented by TGF-ß” value in series [8] is “substantially attenuated”. In addition, the “ex vivo stability in serum” value in series [9] was “excellent ex vivo stability, with detectable levels of intact peptide even after 30 min incubation with serum”. For the same compound, in series [10], the “tolerability of chronic treatment” value is listed as “well tolerated, with no signs of toxicity”. Further, the “skin fibrosis, low dose” value in series [11] (0.2 mg/kg/d, multiple independent experiments) is reported as “Significant attenuation”. Also, the “skin fibrosis, high dose” value in series [11] (1 mg/kg/d, multiple independent experiments) was “Significant attenuation”. Further, the “dermal thickness, peptide by itself” value in [11] (ADP355 alone, without BLM) is given as “no significant effect”. In series [11] (setting [12]), the BLM-induced collagen accumulation result is listed as “significantly mitigated” and the “BLM-induced dWAT attrition” value is “significantly mitigated”. In addition, in [11] (daily i.p. ADP355 initiated concurrently with BLM (s.c. 14 d), continued for 21 d), the “BLM-induced increase in dermal thickness” value was “significantly mitigated”. The “BLM-induced fibrotic gene expression” value in [11] (daily i.p. ADP355 initiated concurrently with BLM, qPCR of lesional skin) is listed as “significantly mitigated”. The established dermal fibrosis result in series [11] (treatment initiated at day 10 of BLM, data not shown) was “reversed established dermal fibrosis”.

The values above are taken from PMC5493638, “Adiponectin is an endogenous anti-fibrotic mediator and therapeutic target” (Scientific Reports, 2017).
